Test results taken from US20150141248A1, “ANTIFUNGAL COMPOSITIONS” (DSM IP ASSETS B.V., priority 2011, published 2015).

Key:
[1] = tested on: Fusarium proliferatum; assay: Treatment of wounded bananas inoculated with Fusarium proliferatum (mould growth); format: in vivo; details: for Number of moulded wounds/total number of 12 wounds: bananas 20° C.; for Observed antifungal activity O: bananas
Protocol: Four organic, unripe (green) bananas were used per treatment. The peel of each banana was wounded thrice using a cork borer according to the method described by de Lapeyre de Bellaire and Dubois (1987). Subsequently, each wound was inoculated with 15 μl of a Fusarium proliferatum suspension containing 1×10^5 of spores/ml. […] In addition, the antifungal compositions comprised 1.00% (w/w) methylhydroxyethylcellulose (MHEC), 0.40% (w/w) xanthan gum, 0.20% (w/w) anti-foaming agent, 0.30% (w/w) citric acid, 0.39% (w/w) lactic acid and 0.11% (w/w) potassium sorbate. The pH of the composition was 4.0. […] The treated, unripe bananas were incubated in a closed box in the dark at 20° C. and a relative air humidity of 95%, which was obtained in the presence of a saturated Na2HPO4 aqueous solution. During the first 20 days of incubation, a ripe (yellow) banana was included in the closed box to elevate the ethylene gas level and thus induce ripening of the treated, unripe bananas. […]
The expected antifungal activity (E in %) of the combined antifungal composition comprising both active ingredients was calculated according to the Colby equation (Colby, 1967): […]
wherein X and Y are the observed antifungal activities (in %) of the individual active ingredients X and Y, respectively. If the observed antifungal activity (O in %) of the combination exceeds the expected antifungal activity (E in %) of the combination and the synergy factor O/E is thus >1.0, the combined application of the active ingredients leads to a synergistic antifungal effect.

[2] = tested on: Botrytis cinerea; assay: In vitro antifungal activity, 96-well microtiter plates; format: cell-based; details: in vitro 25° C., 5 days
Protocol: The following compositions were tested: […] Subsequently, 100 μl of a Botrytis cinerea suspension prepared in PCB medium was used to inoculated each well with 2.5×10^3 spores/ml. […] The expected antifungal activity (E in %) of the active ingredient combination was calculated according to the Colby equation (Colby, 1967): […] wherein X and Y are the observed antifungal activities (in %) of the individual active ingredients X and Y, respectively.

[3] = tested on: Fusarium proliferatum; assay: as above; format: cell-based; details: in vitro 25° C., 3 days
Protocol: Subsequently, 100 μl of a Botrytis cinerea suspension prepared in PCB medium was used to inoculated each well with 2.5×10^3 spores/ml.
, the in vitro antifungal activity (%) of the individual active ingredients was assessed by calculating the reduction in mould growth observed in the presence of the active ingredient in comparison to the mould growth observed in the absence of the active ingredient. The expected antifungal activity (E in %) of the active ingredient combination was calculated according to the Colby equation (Colby, 1967): […]
The experiment was conducted as described in Example 13, except for the fact that the following compositions were tested:
Furthermore, Fusarium proliferatum was used for inoculation. The antifungal activity (in %) of the individual and combined active ingredients was determined according to the method described in Example 13.

In the case of CCCC1COC(Cn2cncn2)(c2ccc(Cl)cc2Cl)O1 (stereo not drawn) [Propiconazole, propiconazole], the “Number of moulded wounds/total number of 12 wounds” value ([1]; 50 ppm natamycin, 250 ppm propiconazole or both, Day 29) is reported as 5/12, the “Number of moulded wounds/total number of 12 wounds” value ([1]; 50 ppm natamycin, 250 ppm propiconazole or both, Day 29, listed as propiconazole) is reported as 5 and the “Number of moulded wounds/total number of 12 wounds” value ([1]; 50 ppm natamycin, 250 ppm propiconazole or both, Day 32) is reported as 8/12. For the same compound, the “Number of moulded wounds/total number of 12 wounds” value ([1]; 50 ppm natamycin, 250 ppm propiconazole or both, Day 32, listed as propiconazole) was 8, the “Number of moulded wounds/total number of 12 wounds” value ([1]; 50 ppm natamycin, 250 ppm propiconazole or both, Day 34) was 10/12 and the “Number of moulded wounds/total number of 12 wounds” value ([1]; 50 ppm natamycin, 250 ppm propiconazole or both, Day 34, listed as propiconazole) was 10. The “Number of moulded wounds/total number of 12 wounds” value ([1]; 50 ppm natamycin, 250 ppm propiconazole or both, Day 36) was 12/12, the “Number of moulded wounds/total number of 12 wounds” value ([1]; 50 ppm natamycin, 250 ppm propiconazole or both, Day 36, listed as propiconazole) was 12 and the “Number of moulded wounds/total number of 12 wounds” value ([1]; 50 ppm natamycin, 250 ppm propiconazole or both, Day 39) was 12/12. The “Number of moulded wounds/total number of 12 wounds” value ([1]; 50 ppm natamycin, 250 ppm propiconazole or both, Day 39, listed as propiconazole) was 12, the “Number of moulded wounds/total number of 12 wounds” value ([1]; 50 ppm natamycin, 250 ppm propiconazole or both, Day 42) was 12/12 and the “Number of moulded wounds/total number of 12 wounds” value ([1]; 50 ppm natamycin, 250 ppm propiconazole or both, Day 42, listed as propiconazole) was 12. For the same compound, the “Number of moulded wounds/total number of 12 wounds” value ([1]; 250 ppm natamycin, 500 ppm propiconazole or both, Day 34) was 10/12, the “Number of moulded wounds/total number of 12 wounds” value ([1]; 250 ppm natamycin, 500 ppm propiconazole or both, Day 34, listed as propiconazole) was 10 and the “Number of moulded wounds/total number of 12 wounds” value ([1]; 250 ppm natamycin, 500 ppm propiconazole or both, Day 36) was 10/12. For the same compound, the “Number of moulded wounds/total number of 12 wounds” value ([1]; 250 ppm natamycin, 500 ppm propiconazole or both, Day 36, listed as propiconazole) was 10, the “Number of moulded wounds/total number of 12 wounds” value ([1]; 500 ppm natamycin, 150 ppm propiconazole or both, Day 26) was 9/12 and the “Number of moulded wounds/total number of 12 wounds” value ([1]; 500 ppm natamycin, 150 ppm propiconazole or both, Day 26, listed as propiconazole) was 9. The “Number of moulded wounds/total number of 12 wounds” value ([1]; 500 ppm natamycin, 150 ppm propiconazole or both, Days 27-29) was 12/12, the “Number of moulded wounds/total number of 12 wounds” value ([1]; 500 ppm natamycin, 150 ppm propiconazole or both, Days 27-29, listed as propiconazole) was 12 and the “Number of moulded wounds/total number of 12 wounds” value ([1]; 500 ppm natamycin, 150 ppm propiconazole or both, Days 31-32) was 12/12. For the same compound, the “Number of moulded wounds/total number of 12 wounds” value ([1]; 500 ppm natamycin, 150 ppm propiconazole or both, Days 31-32, listed as propiconazole) was 12, the “Number of moulded wounds/total number of 12 wounds” value ([1]; 500 ppm natamycin, 1000 ppm propiconazole or both, Day 39) was 4/12 and the “Number of moulded wounds/total number of 12 wounds” value ([1]; 500 ppm natamycin, 1000 ppm propiconazole or both, Day 39, listed as propiconazole) was 4. For the same compound, the “Number of moulded wounds/total number of 12 wounds” value ([1]; 500 ppm natamycin, 1000 ppm propiconazole or both, Day 42) was 4/12, the “Number of moulded wounds/total number of 12 wounds” value ([1]; 500 ppm natamycin, 1000 ppm propiconazole or both, Day 42, listed as propiconazole) was 4 and the “Observed antifungal activity O” value ([1]; 50 ppm natamycin, 250 ppm propiconazole or both, 29 days) was 92%. For the same compound, the “Observed antifungal activity O” value ([1]; 50 ppm natamycin, 250 ppm propiconazole or both, 32 days) was 90%, the “Observed antifungal activity O” value ([1]; 50 ppm natamycin, 250 ppm propiconazole or both, 34 days) was 85% and the “Observed antifungal activity O” value ([1]; 50 ppm natamycin, 250 ppm propiconazole or both, 36 days) was 81%. The “Observed antifungal activity O” value ([1]; 50 ppm natamycin, 250 ppm propiconazole or both, 39 days) was 57%, the “Observed antifungal activity O” value ([1]; 50 ppm natamycin, 250 ppm propiconazole or both, 42 days) was 47% and the “Observed antifungal activity O” value ([1]; 250 ppm natamycin, 50 ppm propiconazole or both, 23 days) was 36%. For the same compound, the “Observed antifungal activity O” value ([1]; 250 ppm natamycin, 50 ppm propiconazole or both, 27 days) was 30%, the “Observed antifungal activity O” value ([1]; 250 ppm natamycin, 50 ppm propiconazole or both, 29 days) was 35% and the “Observed antifungal activity O” value ([1]; 250 ppm natamycin, 500 ppm propiconazole or both, 34 days) was 74%. For the same compound, the “Observed antifungal activity O” value ([1]; 250 ppm natamycin, 500 ppm propiconazole or both, 36 days) was 62%, the “Observed antifungal activity O” value ([1]; 250 ppm natamycin, 500 ppm propiconazole or both, 39 days) was 43% and the “Observed antifungal activity O” value ([1]; 250 ppm natamycin, 500 ppm propiconazole or both, 42 days) was 33%. For the same compound, the “Observed antifungal activity O” value ([1]; 500 ppm natamycin, 150 ppm propiconazole or both, 27 days) was 57%, the “Observed antifungal activity O” value ([1]; 500 ppm natamycin, 150 ppm propiconazole or both, 28 days) was 56% and the “Observed antifungal activity O” value ([1]; 500 ppm natamycin, 150 ppm propiconazole or both, 29 days) was 54%. For the same compound, the “Observed antifungal activity O” value ([1]; 500 ppm natamycin, 150 ppm propiconazole or both, 31 days) was 44%, the “Observed antifungal activity O” value ([1]; 500 ppm natamycin, 150 ppm propiconazole or both, 32 days) was 33% and the “Observed antifungal activity O” value ([2]; natamycin 0.63 ppm, propiconazole 1.00 ppm or both) was 0%. For the same compound, the “Observed antifungal activity O” value ([2]; natamycin 1.25 ppm, propiconazole 0.50 ppm, prothioconazole 0.13 ppm, or natamycin 1.25 ppm with either) was 0%, the “Observed antifungal activity O” value ([3]; natamycin 2.5 ppm, propiconazole 7.5 ppm or both) was 0% and the “Observed antifungal activity O” value ([3]; propiconazole 10.0 ppm alone or with natamycin 2.5 ppm) was 0%.
